Measured values as given in US20110086759A1, “CHEMICAL COMPOUNDS” (SYNGENTA CROP PROTECTION, INC., priority 2007, published 2011).

How the values were obtained:
Assay type in all cases: in vivo
[1] = system: Alopecurus myosuroides (ALOMY); experiment: Post-emergence biological efficacy, glasshouse pot test; settings: 312 h, post-emergence, 1,000 g/ha, evaluated after 13 days (100=total damage; 0=no damage), read-out: Percentage damage caused to weed species, ALOMY
Summary of the method: (§1)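 Pot-grown weeds were sprayed 8 days after sowing with test compound in acetone/water (50:50) with 0.5% Tween 20 at 1000 or 250 g/ha. Glasshouse at 24/16° C day/night, 14 h light, 65% humidity. Damage scored 0-100 (100 = total damage) after 13 days.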

[2] = system: Amaranthus retoflexus (AMARE); experiment: as above; settings: Amaranthus retroflexus, 312 h; post-emergence, 1,000 g/ha, evaluated after 13 days (100=total damage; 0=no damage); read-out: Percentage damage caused to weed species, AMARE
Summary of the method: as §1

[3] = system: Ipomea hederaceae (IPOHE); experiment: as above; settings: Ipomoea hederacea, 312 h; post-emergence, 1,000 g/ha, evaluated after 13 days (100=total damage; 0=no damage); read-out: Percentage damage caused to weed species, IPOHE
Summary of the method: as §1

Solanum nigrum (SOLNI) [4] = experiment: as above; settings: 312 h, post-emergence, 1,000 g/ha, evaluated after 13 days (100=total damage; 0=no damage), read-out: Percentage damage caused to weed species, SOLNI
Summary of the method: as §1

Setaria faberi (SETFA) [5] = experiment: as above; settings: 312 h, post-emergence, 1,000 g/ha, evaluated after 13 days (100=total damage; 0=no damage), read-out: Percentage damage caused to weed species, SETFA
Summary of the method: as §1

[6] = system: Echinochloa crus-galli (ECHCG); experiment: as above; settings: 312 h, post-emergence, 1,000 g/ha, evaluated after 13 days (100=total damage; 0=no damage), read-out: Percentage damage caused to weed species, ECHCG
Summary of the method: as §1

[7] = system: Alopecurus myosuroides (ALOMY); experiment: Pre-emergence biological efficacy, glasshouse pot test; settings: 312 h, pre-emergence, 1,000 g/ha, evaluated after 13 days (100=total damage; 0=no damage), read-out: Percentage damage ALOMY
Summary of the method: (§2)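 One day after sowing in standard soil, pots were sprayed with compound in acetone/water (50:50) with 0.5% Tween 20, at 1000 or 250 g/ha. Plants grew at 24/16° C day/night, 14 h light, 65% humidity. Damage was scored after 13 days (0 = none, 100 = total).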

[8] = system: Amaranthus retoflexus (AMARE); experiment: as above; settings: Amaranthus retroflexus, 312 h; pre-emergence, 1,000 g/ha, evaluated after 13 days (100=total damage; 0=no damage); read-out: Percentage damage AMARE
Summary of the method: as §2

[9] = system: Ipomea hederaceae (IPOHE); experiment: as above; settings: Ipomoea hederacea, 312 h; pre-emergence, 1,000 g/ha, evaluated after 13 days (100=total damage; 0=no damage); read-out: Percentage damage IPOHE
Summary of the method: as §2

Solanum nigrum (SOLNI) [10] = experiment: as above; settings: 312 h, pre-emergence, 1,000 g/ha, evaluated after 13 days (100=total damage; 0=no damage), read-out: Percentage damage SOLNI
Summary of the method: as §2

Setaria faberi (SETFA) [11] = experiment: as above; settings: 312 h, pre-emergence, 1,000 g/ha, evaluated after 13 days (100=total damage; 0=no damage), read-out: Percentage damage SETFA
Summary of the method: as §2

[12] = system: Echinochloa crus-galli (ECHCG); experiment: as above; settings: 312 h, pre-emergence, 1,000 g/ha, evaluated after 13 days (100=total damage; 0=no damage), read-out: Percentage damage ECHCG
Summary of the method: as §2

## COC(=O)c1nc(C2CC2)nc(NCC(C)(F)c2cccc(C(F)(F)F)c2)c1Cl (stereo not drawn) [Compound 4-242, 5-Chloro-2-cyclopropyl-4-[2-fluoro-2-(3-trifluoromethyl-phenyl)propyl-amino]-6-methoxy-carbonylpyrimidine]
[1]
  pest or weed control at 1000 g/ha: 0%
[2]
  pest or weed control at 1000 g/ha: 90%
[3]
  pest or weed control at 1000 g/ha: 50%
Solanum nigrum (SOLNI) [4]
  pest or weed control at 1000 g/ha: 60%
Setaria faberi (SETFA) [5]
  pest or weed control at 1000 g/ha: 10%
[6]
  pest or weed control at 1000 g/ha: 0%
[7]
  pest or weed control at 1000 g/ha: 0%
[8]
  pest or weed control at 1000 g/ha: 10%
[9]
  pest or weed control at 1000 g/ha: 10%
Solanum nigrum (SOLNI) [10]
  pest or weed control at 1000 g/ha: 0%
Setaria faberi (SETFA) [11]
  pest or weed control at 1000 g/ha: 0%
[12]
  pest or weed control at 1000 g/ha: 0%

## COC(=O)c1nc(C2CC2)nc(NCC(C)(F)c2ccc(Cl)cc2Cl)c1Cl (stereo not drawn) [Compound 4-243, 5-Chloro-2-cyclopropyl-4-[2-(2,4-dichlorophenyl)-2-fluoro-propylamino]-6-methoxycarbonyl-pyrimidine]
[1]
  pest or weed control at 1000 g/ha: 0%
[2]
  pest or weed control at 1000 g/ha: 80%
[3]
  pest or weed control at 1000 g/ha: 60%
Solanum nigrum (SOLNI) [4]
  pest or weed control at 1000 g/ha: 70%
Setaria faberi (SETFA) [5]
  pest or weed control at 1000 g/ha: 20%
[6]
  pest or weed control at 1000 g/ha: 10%
[7]
  pest or weed control at 1000 g/ha: 0%
[8]
  pest or weed control at 1000 g/ha: 40%
[9]
  pest or weed control at 1000 g/ha: 0%
Solanum nigrum (SOLNI) [10]
  pest or weed control at 1000 g/ha: 10%
Setaria faberi (SETFA) [11]
  pest or weed control at 1000 g/ha: 0%
[12]
  pest or weed control at 1000 g/ha: 0%

## CCCC(F)(CNc1nc(C2CC2)nc(C(=O)OC)c1Cl)c1ccc(Cl)cc1Cl (stereo not drawn) [Compound 4-244, 5-Chloro-2-cyclopropyl-4-[2-(2,4-dichloro-phenyl)-2-fluoro-pentylamino]-6-methoxycarbonyl-pyrimidine]
[1]
  pest or weed control at 1000 g/ha: 0%
[2]
  pest or weed control at 1000 g/ha: 20%
[3]
  pest or weed control at 1000 g/ha: 50%
Solanum nigrum (SOLNI) [4]
  pest or weed control at 1000 g/ha: 20%
Setaria faberi (SETFA) [5]
  pest or weed control at 1000 g/ha: 0%
[6]
  pest or weed control at 1000 g/ha: 0%
[7]
  pest or weed control at 1000 g/ha: 0%
[8]
  pest or weed control at 1000 g/ha: 30%
[9]
  pest or weed control at 1000 g/ha: 0%
Solanum nigrum (SOLNI) [10]
  pest or weed control at 1000 g/ha: 0%
Setaria faberi (SETFA) [11]
  pest or weed control at 1000 g/ha: 0%
[12]
  pest or weed control at 1000 g/ha: 0%

## COC(=O)c1nc(C2CC2)nc(NCCCN2CCCC2=O)c1Cl [Compound 4-246, 5-Chloro-2-cyclopropyl-6-methoxycarbonyl-4-[3-(2-oxo-pyrrolidin-1-yl)propylamino]-pyrimidine]
[1]
  pest or weed control at 1000 g/ha: 0%
[2]
  pest or weed control at 1000 g/ha: 100%
[3]
  pest or weed control at 1000 g/ha: 60%
Solanum nigrum (SOLNI) [4]
  pest or weed control at 1000 g/ha: 50%
Setaria faberi (SETFA) [5]
  pest or weed control at 1000 g/ha: 30%
[6]
  pest or weed control at 1000 g/ha: 0%
[7]
  pest or weed control at 1000 g/ha: 0%
[8]
  pest or weed control at 1000 g/ha: 80%
[9]
  pest or weed control at 1000 g/ha: 30%
Solanum nigrum (SOLNI) [10]
  pest or weed control at 1000 g/ha: 20%
Setaria faberi (SETFA) [11]
  pest or weed control at 1000 g/ha: 0%
[12]
  pest or weed control at 1000 g/ha: 0%

## COC(=O)c1nc(C2CC2)nc(NCCCN2CCCCC2C)c1Cl (stereo not drawn) [Compound 4-247, 5-Chloro-2-cyclopropyl-6-methoxycarbonyl-4-[3-(2-methyl-piperidin-1-yl)-propylamino]-pyrimidine]
[1]
  pest or weed control at 1000 g/ha: 10%
[2]
  pest or weed control at 1000 g/ha: 100%
[3]
  pest or weed control at 1000 g/ha: 50%
Solanum nigrum (SOLNI) [4]
  pest or weed control at 1000 g/ha: 50%
Setaria faberi (SETFA) [5]
  pest or weed control at 1000 g/ha: 20%
[6]
  pest or weed control at 1000 g/ha: 20%
[7]
  pest or weed control at 1000 g/ha: 10%
[8]
  pest or weed control at 1000 g/ha: 30%
[9]
  pest or weed control at 1000 g/ha: 20%
Solanum nigrum (SOLNI) [10]
  pest or weed control at 1000 g/ha: 70%
Setaria faberi (SETFA) [11]
  pest or weed control at 1000 g/ha: 10%
[12]
  pest or weed control at 1000 g/ha: 10%

## COC(=O)c1nc(C2CC2)nc(NCCCc2ccccc2)c1Cl [Compound 4-249, 5-Chloro-2-cyclopropyl-6-methoxycarbonyl-4-(3-phenylpropyl-amino)pyrimidine]
[1]
  pest or weed control at 1000 g/ha: 30%
[2]
  pest or weed control at 1000 g/ha: 100%
[3]
  pest or weed control at 1000 g/ha: 90%
Solanum nigrum (SOLNI) [4]
  pest or weed control at 1000 g/ha: 100%
Setaria faberi (SETFA) [5]
  pest or weed control at 1000 g/ha: 70%
[6]
  pest or weed control at 1000 g/ha: 50%
[7]
  pest or weed control at 1000 g/ha: 20%
[8]
  pest or weed control at 1000 g/ha: 60%
[9]
  pest or weed control at 1000 g/ha: 100%
Solanum nigrum (SOLNI) [10]
  pest or weed control at 1000 g/ha: 80%
Setaria faberi (SETFA) [11]
  pest or weed control at 1000 g/ha: 50%
[12]
  pest or weed control at 1000 g/ha: 50%
